Source: PMC8465942, “Cyano- and Ketone-Containing Selenoesters as Multi-Target Compounds against Resistant Cancers” (Cancers, 2021)
Like-named read-outs stand apart in the source and are kept apart here. Marks after values point to notes of the source that are not given here.

Key:
[1] = system: Colo 320/MDR-LRP human colonic adenocarcinoma cell line; assay: Cytotoxicity (MTT) on resistant Colo 320 cells; type: cell-based; conditions: for IC50: Homo sapiens, read-out: Colo 320 (IC50 µM) Mean; for SI MRC-5/Colo 320: ratio IC50 non-tumour cells / IC50 cancer cells
Text: (§1) Three cell lines have been used in this study: the doxorubicin-sensitive Colo 205 (CCL-222, ATCC, Manassas, VA, USA) human colonic adenocarcinoma cell line; the multidrug resistant Colo 320/MDR-LRP expressing P-gp (MDR1)-LRP (CCL-220.1, ATCC) human colonic adenocarcinoma cell line; and the MRC-5 human embryonal lung fibroblast cell line (CCL-171, ATCC). The colon adenocarcinoma cell lines were purchased from LGC Promochem (Teddington, UK), and the MRC-5 cell line was purchased from Sigma-Aldrich (Merck KGaA, Darmstadt, Germany). Their culture conditions are as follows: Colo 205 (CCL-222, ATCC) and Colo 320/MDR-LRP expressing P-gp (MDR1)-LRP (CCL-220.1, ATCC) human colon adenocarcinoma cell lines were cultured in RPMI 1640 medium, supplemented with 10% FBS, 2 mM L-glutamine, 1 mM Na-pyruvate, and […]. The cell lines were incubated at 37 °C, 5% CO2, and 95% air atmosphere. The semi-adherent human colon cancer cells were detached with a Trypsin-Versene (EDTA) solution for 5 min at 37 °C. MRC-5 human embryonal lung fibroblast cells were cultured in EMEM containing 4.5 g/L of glucose and supplemented with a non-essential amino acid mixture, a selection of vitamins, and 10% FBS. The cell lines were incubated at 37 °C, 5% CO2, and 95% air atmosphere.
(§2) The effects of increasing concentrations of the compounds on cell growth were tested in 96-well flat-bottomed microtiter plates. Moreover, 10^4 of human colonic adenocarcinoma cells in 100 μL of the medium (RPMI-1640) were added to each well, except for the medium control wells. The adherent human embryonic lung fibroblast cell line was seeded in the EMEM medium for 4 h before the assay. The two-fold serial dilutions of the compounds were made in a separate plate (0.19–100 μM), and then transferred to the plates containing the adherent corresponding cell line. Culture plates were incubated at 37 °C for 24 h. At the end of the incubation period, 20 μL of MTT (thiazolyl blue tetrazolium bromide) solution (from a 5 mg/mL stock solution) were added to each well. After incubation at 37 °C for 4 h, 100 μL of sodium dodecyl sulfate (SDS) solution (10% SDS in 0.01 M HCl) was added to each well, and the plates were further incubated at 37 °C overnight. Cell growth was determined by measuring the optical density (OD) at 540 nm (ref. 630 nm) with a Multiscan EX ELISA reader (Thermo Labsystems, Cheshire, WA, USA). Inhibition of cell growth was expressed as IC50 values, defined as the inhibitory dose that reduces the growth of the cells exposed to the tested compounds by 50%. IC50 values and the SD of triplicate experiments were calculated by using GraphPad Prism software version 5.00 for Windows, with a non-linear regression curve fit (GraphPad Software, San Diego, CA, USA; www.graphpad.com, accessed on 12 July 2021). Doxorubicin (from a 2 mg/mL stock solution, Teva Pharmaceuticals) was used as a positive control.
(§3) The selectivity indexes (SI) were calculated as the ratio of the IC50 value in the non-tumour cells and the IC50 in the cancer cell lines. The compound’s activity towards cancer cells is considered as strongly selective if the selectivity index (SI) value is higher than 6, moderately selective if 3 < SI < 6, slightly selective if 1 < SI < 3, and non-selective if SI is lower than 1 [16].

[2] = system: Colo 205 human colonic adenocarcinoma cell line; assay: Cytotoxicity (MTT) on sensitive Colo 205 cells; type: cell-based; conditions: for IC50: Homo sapiens, read-out: Colo 205 (IC50 µM) Mean; for SI MRC-5/Colo 205: ratio IC50 non-tumour cells / IC50 cancer cells
Text: as §1, §2, §3

[3] = Cytotoxicity (MTT) on normal MRC-5 fibroblasts; type: cell-based; conditions: human
Text: as §1, §2

[4] = system: MDR Colo 320 adenocarcinoma cells; assay: Apoptosis induction (Annexin V-FITC / propidium iodide); type: cell-based, human; conditions: 2 µM; for Cell Death (%) Treated Sample-Untreated Sample / Early Apoptosis (%) Treated Sample-Untreated Sample / Late Apoptosis (%) Treated Sample-Untreated Sample: 3 h induction; for Apoptosis Quotient (%): total apoptotic events relative to reference M627 (20 µM)
Description: The assay was carried out using an Annexin V-FITC Apoptosis Detection Kit Cat. No. PF 032 from Calbiochem (EMD Biosciences. Inc. La Jolla. CA), according to the manufacturer's instructions. […] The cell suspension was distributed into 1 mL aliquots (1 × 10^6 cells) into a 24-well microplate and incubated overnight at 37 °C, with 5% CO2. On the following day, the medium was removed and a fresh medium was added to the cells. The cells were incubated in the presence of Se-compounds for 3 h at 37 °C. […] After a 3 h induction period, the culture medium was removed, the cells were washed with PBS, and a fresh medium was added to the cells. The 24-well plates were incubated overnight at 37 °C, with 5% CO2. After the incubation, the supernatant was collected in a microfuge tube and 200 μL of 0.25 trypsin (Trypsin-Versene) was added to the wells until the cells detached from the surfaces of the wells. The cells were centrifuged at 2000× g for 2 min at room temperature, the supernatant was removed, and the cells were re-suspended in fresh serum-free medium. After this procedure, apoptosis assay was carried out according to the rapid protocol of the kit using Annexin V-FITC and propidium iodide staining. […] The data were analysed by FlowJo^TM software (BD Biosciences, San Jose, NJ, USA).

[5] = 24 h, MTT, read-out: MRC-5 (IC50 µM) Mean

| SMILES | IC50 ([1]; COLO 320, 24 h, MTT) | SI MRC-5/Colo 320 [1] | IC50 ([2]; COLO 205, 24 h, MTT) | IC50 at 24 h [3] | Total Apoptotic Events (Early + Late, %) [4] | Cell Death (%) Treated Sample-Untreated Sample [4] | Early Apoptosis (%) Treated Sample-Untreated Sample [4] | Late Apoptosis (%) Treated Sample-Untreated Sample [4] | Apoptosis Quotient (%) [4] | IC50 ([1]; COLO 320, 24 h) | IC50 ([2]; COLO 205, 24 h) | IC50 at 24 h [3, 5] | SI MRC-5/Colo 205 [2] |
| --- | --- | --- | --- | --- | --- | --- | --- | --- | --- | --- | --- | --- | --- |
| N#CC[Se]C(=O)c1ccccc1C(F)(F)F [N4, Se-(Cyanomethyl) 2-(Trifluoromethyl)benzoselenoate] | 5.57 µM | >6 * | 1.97 µM | > 100 µM | – | – | – | – | – | – | – | – | – |
| CC(=O)C[Se]C(=O)c1ccccc1C(F)(F)F [K4, Se-(2-Oxopropyl) 2-(Trifluoromethyl)benzoselenoate] | – | 2.45 | – | – | 19.5% | 5.95% | 3.4% | 16.1% | 39.5% | 1.48 µM | 1.05 µM | 3.63 µM | – |
| CC(=O)C[Se]C(=O)c1cc(F)c(F)cc1F [K8, Se-(2-Oxopropyl) 2,4,5-Trifluorobenzoselenoate] | 2.37 µM | 1.05 | 2.24 µM | 2.5 µM | 31.6% | 0.85% | 4.9% | 26.7% | 64.0% | – | – | – | 1.12 |
| CC(=O)C[Se]C(=O)c1ccc(C(C)(C)C)cc1 [K7, Se-(2-Oxopropyl) 4-(Tert-butyl)benzoselenoate] | – | 1.45 | – | – | 33.6% | 0.10% | 6.1% | 27.5% | 68.0% | 2.57 µM | 2.69 µM | 3.72 µM | 1.38 |
| CC(=O)C[Se]C(=O)c1cccs1 [K1, Se-(2-Oxopropyl) Thiophene-2-carboselenoate] | 1.47 µM | 1.52 | 1.53 µM | 2.24 µM | 32.6% | 2.15% | 3.7% | 28.9% | 66.0% | – | – | – | 1.46 |
| N#CC[Se]C(=O)c1cc(C(F)(F)F)cc(C(F)(F)F)c1 [N7, Se-(Cyanomethyl) 3,5-Bis(trifluoromethyl)benzoselenoate] | 3.78 µM | >6 * | 1.98 µM | > 100 µM | – | – | – | – | – | – | – | – | – |
| CC(=O)C[Se]C(=O)c1cccc(C(F)(F)F)c1 [K5, Se-(2-Oxopropyl) 3-(Trifluoromethyl)benzoselenoate] | 2.17 µM | 1.43 | 2.14 µM | 3.11 µM | 32.7% | 1.35% | 1.8% | 30.9% | 66.2% | – | – | – | 1.45 |
| N#CC[Se]C(=O)c1ccc(Br)cc1 [N3, Se-(Cyanomethyl) 4-Bromobenzoselenoate] | 4.37 µM | >6 * | 2.1 µM | > 100 µM | – | – | – | – | – | – | – | – | >6 * |
| CC(=O)C[Se]C(=O)c1ccc(Br)cc1 [K3, Se-(2-Oxopropyl) 4-Bromobenzoselenoate] | – | 1.33 | – | – | 44.2% | 0.00% | 18.6% | 25.6% | 89.5% | 2.15 µM | 2.28 µM | 2.86 µM | 1.25 |
| CC(=O)C[Se]C(=O)c1ccccc1F [K2, Se-(2-Oxopropyl) 2-Fluorobenzoselenoate] | 2.38 µM | 1.06 | 3.35 µM | 2.53 µM | 34.2% | 0.95% | 0.3% | 33.9% | 69.2% | – | – | – | – |
| CC(=O)C[Se]C(=O)c1ccc(F)c(Cl)c1 [K6, Se-(2-Oxopropyl) 3-Chloro-4-fluorobenzoselenoate] | 2.1 µM | 1.72 | 2.1 µM | 3.62 µM | 32.3% | 0.17% | 4.5% | 27.8% | 65.4% | – | – | – | 1.73 |
| N#CC[Se]C(=O)c1cccc(F)c1 [N2, Se-(Cyanomethyl) 3-Fluorobenzoselenoate] | 7.01 µM | >6 * | 2.96 µM | > 100 µM | – | – | – | – | – | – | – | – | >6 * |
